From patent US10457687B2, “Aminoacid derivatives, a process for their preparation and pharmaceutical compositions containing them” (LES LABORATOIRES SERVIER, priority 2015, dated 2019)

Target: Mcl-1 protein (Homo sapiens, UniProt Q07820)
Experiment: Inhibition of Mcl-1 by the fluorescence polarisation technique (Method 1 or Method 2)
Type: binding
Conditions: for IC50: fluorescence polarisation, Fluorescein labelled ligand, Method 1 (not underlined) or Method 2 (underlined), read-out: IC50 (μM) Mcl-1 FP
Experimental: The relative binding potency of each compound was determined via Fluorescence Polarisation (FP).
An 11 point serial dilution of each compound was prepared in DMSO and 2 μl transferred into flat bottomed, low binding, 384-well plate (final DMSO concentration 5%). 38 μl of buffer (10 mM 4-(2-hydroxyethyl)-1-piperazineethanesulfonic acid [HEPES], 150 mM NaCl, 0.05% Tween 20, pH 7.4), containing the Fluorescein labelled ligand (final concentration 1 nM) and Mcl-1 protein (final concentration 5 nM) was then added.
An 11 point serial dilution of each compound was prepared in DMSO and 2 μl transferred into flat bottomed, low binding, 384-well plate (final DMSO concentration 5%). 38 μl of buffer (20 mM Na2HPO4, 1 mM EDTA, 50 mM NaCl, pH 7.4), containing the Fluorescein labelled ligand (final concentration 10 nM) and Mcl-1 protein (final concentration 10 nM) was then added.

[1] = partial inhibitors, @ 50 μM test compound

Mcl-1 protein, sequence (Q07820 whole entry): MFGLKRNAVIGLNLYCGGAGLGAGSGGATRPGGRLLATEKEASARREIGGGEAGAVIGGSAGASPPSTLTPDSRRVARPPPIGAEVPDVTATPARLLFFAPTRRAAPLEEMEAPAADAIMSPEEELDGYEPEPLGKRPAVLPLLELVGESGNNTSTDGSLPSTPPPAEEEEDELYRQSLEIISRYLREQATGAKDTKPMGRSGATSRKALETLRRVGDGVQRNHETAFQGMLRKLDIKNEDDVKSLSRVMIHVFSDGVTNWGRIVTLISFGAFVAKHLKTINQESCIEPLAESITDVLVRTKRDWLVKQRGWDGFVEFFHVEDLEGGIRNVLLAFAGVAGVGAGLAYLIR

| SMILES | IC50 [µM] | further results |
| --- | --- | --- |
| CCc1sc2ncnc(N[C@H](Cc3ccccc3)C(=O)O)c2c1-c1cccc2cnn(C)c12 [Example 89, N-[6-ethyl-(5Ra)-5-(1-methyl-1H-indazol-7-yl)thieno[2,3-d]pyrimidin-4-yl]-D-phenylalanine] | – | percentage fluorescence polarisation inhibition, Mcl-1 FP (partial inhibitors, @ 200 μM test compound): 72.13% @ 200 μM |
| CCc1sc2ncnc(NC(Cc3ccccc3)C(=O)O)c2c1-c1cccc(Br)c1C [Example 96, N-[(5Ra)-5-(3-bromo-2-methylphenyl)-6-ethylthieno[2,3-d]pyrimidin-4-yl]-D-phenylalanine] | 1.63 | – |
| CCc1sc2ncnc(NC(Cc3ccccc3)C(=O)O)c2c1-c1cccc(Br)c1C [Example 97, N-[(5Sa)-5-(3-bromo-2-methylphenyl)-6-ethylthieno[2,3-d]pyrimidin-4-yl]-D-phenylalanine] | 0.073 | – |
| CCc1sc2ncnc(N[C@H](Cc3ccccc3)C(=O)O)c2c1-c1cccc2[nH]ncc12 [Example 98, N-[6-ethyl-5-(1H-indazol-4-yl)thieno[2,3-d]pyrimidin-4-yl]-D-phenylalanine] | 2.87 | – |
| CCc1sc2ncnc(N[C@H](Cc3ccccc3)C(=O)O)c2c1-c1cccc2cccnc12 [Example 99, N-[6-ethyl-5-(quinolin-8-yl)thieno[2,3-d]pyrimidin-4-yl]-D-phenylalanine] | – | inhibition at 200 µM (partial inhibitors, @ 200 μM test compound, read-out: percentage fluorescence polarisation inhibition, Mcl-1 FP): 28.3% |
| CCc1sc2ncnc(NC(Cc3ccccc3)C(=O)O)c2c1-c1cccc2ccccc12 [Example 100, N-[6-ethyl-(5Ra)-5-(naphthalen-1-yl)thieno[2,3-d]pyrimidin-4-yl]-D-phenylalanine] | 4.75 | – |
| CCc1sc2ncnc(NC(Cc3ccccc3)C(=O)O)c2c1-c1cccc2ccccc12 [Example 101, N-[6-ethyl-(5Sa)-5-(naphthalen-1-yl)thieno[2,3-d]pyrimidin-4-yl]-D-phenylalanine] | 0.462 | – |
| C=Cc1sc2ncnc(NC(Cc3ccccc3)C(=O)O)c2c1-c1cccc2ccccc12 [Example 102, N-[6-ethenyl-(5Sa)-5-(naphthalen-1-yl)thieno[2,3-d]pyrimidin-4-yl]-D-phenylalanine] | 0.073 | – |
| C=Cc1sc2ncnc(NC(Cc3ccccc3)C(=O)O)c2c1-c1cccc2ccccc12 [Example 103, N-[6-ethenyl-(5Ra)-5-(naphthalen-1-yl)thieno[2,3-d]pyrimidin-4-yl]-D-phenylalanine] | 0.715 | – |
| C/C=C\c1sc2ncnc(N[C@H](Cc3ccccc3)C(=O)O)c2c1-c1cccc2ccccc12 [Example 104, N-[(5Sa)-5-(naphthalen-1-yl)-6-((1Z)-prop-1-en-1-yl)thieno[2,3-d]pyrimidin-4-yl]-D-phenylalanine] | 0.046 | – |
| C/C=C\c1sc2ncnc(N[C@H](Cc3ccccc3)C(=O)O)c2c1-c1cccc2ccccc12 [Example 105, N-[(5Ra)-5-(naphthalen-1-yl)-6-((1Z)-prop-1-en-1-yl)thieno[2,3-d]pyrimidin-4-yl]-D-phenylalanine] | 0.704 | – |
| C=C(C)c1sc2ncnc(NC(Cc3ccccc3)C(=O)O)c2c1-c1cccc2ccccc12 [Example 106, N-[(5Sa)-5-(naphthalen-1-yl)-6-(prop-1-en-2-yl)thieno[2,3-d]pyrimidin-4-yl]-D-phenylalanine] | 0.065 | – |
| C=C(C)c1sc2ncnc(NC(Cc3ccccc3)C(=O)O)c2c1-c1cccc2ccccc12 [Example 107, N-[(5Ra)-5-(naphthalen-1-yl)-6-(prop-1-en-2-yl)thieno[2,3-d]pyrimidin-4-yl]-D-phenylalanine] | 0.544 | – |
| CC=Cc1sc2ncnc(NC(Cc3ccccc3)C(=O)O)c2c1-c1cccc2ccccc12 [Example 108, N-{(5Sa)-5-(naphthalen-1-yl)-6-[(1E)-prop-1-en-1-yl]thieno[2,3-d]pyrimidin-4-yl}-D-phenylalanine] | 0.079 | – |
| CC=Cc1sc2ncnc(NC(Cc3ccccc3)C(=O)O)c2c1-c1cccc2ccccc12 [Example 109, N-{(5Ra)-5-(naphthalen-1-yl)-6-[(1E)-prop-1-en-1-yl]thieno[2,3-d]pyrimidin-4-yl}-D-phenylalanine] | 1.86 | – |
| CCc1sc2ncnc(N[C@](C)(Cc3ccccc3)C(=O)O)c2c1-c1cccc(Cl)c1C [Example 119, N-[5-(3-chloro-2-methylphenyl)-6-ethylthieno[2,3-d]pyrimidin-4-yl]-alpha-methyl-D-phenylalanine] | 1.46 | – |
| CCc1sc2ncnc(N[C@H](C(=O)O)[C@H](O)c3ccccc3)c2c1-c1cccc(Cl)c1C [Example 124, (βR)—N-[(5Ra)-5-(3-chloro-2-methylphenyl)-6-ethylthieno[2,3-d]pyrimidin-4-yl]-beta-hydroxy-L-phenylalanine] | – | percentage fluorescence polarisation inhibition, Mcl-1 FP [1]: 75.7% @ 50 μM |
| CCc1sc2ncnc(N[C@H](Cc3ccccc3C#N)C(=O)O)c2c1-c1cccc(Cl)c1C [Example 126, N-[(5Ra)-5-(3-chloro-2-methylphenyl)-6-ethylthieno[2,3-d]pyrimidin-4-yl]-2-cyano-D-phenylalanine] | – | percentage fluorescence polarisation inhibition, Mcl-1 FP [1]: 41.2% @ 50 μM |
| CCc1sc2ncnc(NC(Cc3ccccc3C#N)C(=O)O)c2c1-c1cccc(Cl)c1C [Example 127, N-[(5Sa)-5-(3-chloro-2-methylphenyl)-6-ethylthieno[2,3-d]pyrimidin-4-yl]-2-cyano-D-phenylalanine] | 0.913 | – |
| CCc1sc2ncnc(N[C@H](Cc3c(F)cccc3F)C(=O)O)c2c1-c1cccc(Cl)c1C [Example 130, N-[(5Ra)-5-(3-chloro-2-methylphenyl)-6-ethylthieno[2,3-d]pyrimidin-4-yl]-2,6-difluoro-D-phenylalanine] | – | percentage fluorescence polarisation inhibition, Mcl-1 FP [1]: 67.4% @ 50 μM |
| CCc1sc2ncnc(NC(Cc3c(F)cccc3F)C(=O)O)c2c1-c1cccc(Cl)c1C [Example 131, N-[(5Sa)-5-(3-chloro-2-methylphenyl)-6-ethylthieno[2,3-d]pyrimidin-4-yl]-2,6-difluoro-D-phenylalanine] | 0.495 | – |
| CCc1sc2ncnc(NC(Cc3ccccc3C(N)=O)C(=O)O)c2c1-c1cccc(Cl)c1C [Example 134, 2-carbamoyl-N-[(5Sa)-5-(3-chloro-2-methylphenyl)-6-ethylthieno[2,3-d]pyrimidin-4-yl]-D-phenylalanine] | 0.176 | – |
| CCc1sc2ncnc(N[C@H](Cc3ccccc3[N+](=O)[O-])C(=O)O)c2c1-c1cccc(Cl)c1C [Example 135, N-[(5Ra)-5-(3-chloro-2-methylphenyl)-6-ethylthieno[2,3-d]pyrimidin-4-yl]-2-nitro-D-phenylalanine] | – | percentage fluorescence polarisation inhibition, Mcl-1 FP [1]: 75.25% @ 50 μM |
| CCc1sc2ncnc(NC(Cc3ccccc3[N+](=O)[O-])C(=O)O)c2c1-c1cccc(Cl)c1C [Example 136, N-[(5Sa)-5-(3-chloro-2-methylphenyl)-6-ethylthieno[2,3-d]pyrimidin-4-yl]-2-nitro-D-phenylalanine] | 0.146 | – |
| CCc1sc2ncnc(N[C@H](Cc3ccccc3C(F)(F)F)C(=O)O)c2c1-c1cccc(Cl)c1C [Example 137, N-[(5Ra)-5-(3-chloro-2-methylphenyl)-6-ethylthieno[2,3-d]pyrimidin-4-yl]-2-(trifluoromethyl)-D-phenylalanine] | – | percentage fluorescence polarisation inhibition, Mcl-1 FP [1]: 71.05% @ 50 μM |
| CCc1sc2ncnc(NC(Cc3ccccc3C(F)(F)F)C(=O)O)c2c1-c1cccc(Cl)c1C [Example 138, N-[(5Sa)-5-(3-chloro-2-methylphenyl)-6-ethylthieno[2,3-d]pyrimidin-4-yl]-2-(trifluoromethyl)-D-phenylalanine] | 0.664 | – |
